Test results reported in patent publication US10745355B2, “Anti-cancer compounds” (THE UNIVERSITY OF SYDNEY, priority 2015, dated 2020).

Experiments:
U87 [1] = assay: Alamar blue cell viability assay, U87 cells; type: cell-based; settings: Homo sapiens, U-87 MG; 72 hours of treatment; mean±SEM, three independent experiments
Experimental: (§1) U87 and U251 cell lines were obtained from the European Collection of Cell Cultures (ECACC) through CellBank Australia. U87-EGFRvIII cell line was obtained from their lab of origin (Nishikawa et al., 1994, Proc Natl Acad Sci USA 91: 7727-7731) and tested for EGFR amplification and mutation by immunoblotting and flow cytometry. Cells were cultured in DMEM medium (Invitrogen by Life Technologies, Carlsbad, Calif., USA) supplemented with 10% FBS (Sigma-Aldrich) at 37° C. and 5% CO2. Primary gliomaspheres (RN1, classical; WK1, mesenchymal) were derived from glioblastoma specimens (Day et al., 2013, Cancers 5: 357-371; Day et al., 2013, Cancer Cell 23: 238-248), maintained in StemPro NSC serum-free media supplemented with EGF and FGF (all Life Technologies), and grown on matrigel-coated flasks (Pollard et al., 2009, Cell Stem Cell 4: 568-580).
(§2) Cell viability was determined using Alamar blue assay after 72 hours of treatment (Table 2). EC50 values were calculated using non-linear regression on Graph Pad Prism version 5. c Log P values calculated using ChemBioDraw Software. Results are mean±SEM from three independent experiments performed in triplicates.

U251 = assay: Alamar blue cell viability assay, U251 cells; type: cell-based; settings: Homo sapiens, U-251; 72 hours of treatment; mean±SEM, three independent experiments
Experimental: as §1, §2

ALK = ALK (Homo sapiens, UniProt Q9UM73); assay: Kinase profiling (ProQinase 33PanQinase Activity Assay), ALK; type: biochemical; settings: read-out: residual activity, ALK
ALK, sequence (Q9UM73 19-1620): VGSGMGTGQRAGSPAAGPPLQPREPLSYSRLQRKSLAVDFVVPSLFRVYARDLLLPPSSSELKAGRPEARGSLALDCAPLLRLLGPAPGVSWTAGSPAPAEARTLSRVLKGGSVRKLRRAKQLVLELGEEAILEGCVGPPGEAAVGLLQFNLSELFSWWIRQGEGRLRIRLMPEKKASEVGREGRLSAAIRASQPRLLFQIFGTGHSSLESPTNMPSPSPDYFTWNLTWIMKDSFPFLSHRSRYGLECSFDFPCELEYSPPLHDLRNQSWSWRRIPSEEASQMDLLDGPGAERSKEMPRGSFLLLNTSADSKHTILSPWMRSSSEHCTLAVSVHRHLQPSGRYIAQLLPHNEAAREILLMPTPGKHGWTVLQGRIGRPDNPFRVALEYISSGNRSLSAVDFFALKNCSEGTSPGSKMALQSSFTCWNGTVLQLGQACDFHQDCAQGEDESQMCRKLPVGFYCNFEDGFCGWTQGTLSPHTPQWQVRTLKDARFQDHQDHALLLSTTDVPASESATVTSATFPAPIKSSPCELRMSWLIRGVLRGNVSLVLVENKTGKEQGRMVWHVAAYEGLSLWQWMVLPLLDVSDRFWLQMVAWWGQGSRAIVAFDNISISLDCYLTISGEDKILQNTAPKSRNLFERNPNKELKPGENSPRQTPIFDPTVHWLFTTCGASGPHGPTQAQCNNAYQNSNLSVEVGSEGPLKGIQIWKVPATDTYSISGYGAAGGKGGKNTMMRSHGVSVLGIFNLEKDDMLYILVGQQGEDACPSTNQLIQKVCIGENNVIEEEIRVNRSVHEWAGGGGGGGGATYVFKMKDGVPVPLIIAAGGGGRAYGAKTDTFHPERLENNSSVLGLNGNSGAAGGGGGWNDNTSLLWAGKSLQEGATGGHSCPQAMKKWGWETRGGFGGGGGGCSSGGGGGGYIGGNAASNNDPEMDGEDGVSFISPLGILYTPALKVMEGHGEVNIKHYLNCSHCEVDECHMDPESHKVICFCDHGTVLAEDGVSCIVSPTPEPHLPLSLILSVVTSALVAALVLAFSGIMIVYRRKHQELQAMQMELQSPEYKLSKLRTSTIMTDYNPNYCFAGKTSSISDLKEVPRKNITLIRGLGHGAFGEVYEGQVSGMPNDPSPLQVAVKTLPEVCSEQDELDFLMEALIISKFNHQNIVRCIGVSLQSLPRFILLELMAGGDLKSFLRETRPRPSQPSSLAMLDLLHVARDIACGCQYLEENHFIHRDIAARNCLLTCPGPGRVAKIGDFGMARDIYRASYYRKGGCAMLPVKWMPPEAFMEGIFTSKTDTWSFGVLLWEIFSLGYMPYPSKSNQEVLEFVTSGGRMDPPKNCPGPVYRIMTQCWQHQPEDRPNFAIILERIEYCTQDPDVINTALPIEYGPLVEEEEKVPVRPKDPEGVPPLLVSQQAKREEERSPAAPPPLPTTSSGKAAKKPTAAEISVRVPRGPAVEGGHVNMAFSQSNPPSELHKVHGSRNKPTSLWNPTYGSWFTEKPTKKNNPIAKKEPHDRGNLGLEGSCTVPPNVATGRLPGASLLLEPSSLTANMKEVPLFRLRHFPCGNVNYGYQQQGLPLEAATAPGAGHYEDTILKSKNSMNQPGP
Experimental: (§3) The kinase profiling of compound 1-08 at 10 and 50 μM was performed by ProQinase GmbH (Freiburg, Germany). A radiometric protein kinase assay (^33PanQinase® Activity Assay) and the non-radiometric ADP-Glo™ Assay (Promega, Madison, Wis., USA) were used for measuring kinase activity of 387 protein kinases and 13 lipid kinases, respectively. The results are shown in Table 3 (only the top 10 kinases are listed, and the selectivity score describes the portion of kinases inhibited more than 50% in relation to all tested kinases).

BRK = BRK (Homo sapiens, UniProt Q13882); assay: Kinase profiling (ProQinase 33PanQinase Activity Assay), BRK; type: biochemical; settings: read-out: residual activity, BRK
BRK, sequence (Q13882 whole entry): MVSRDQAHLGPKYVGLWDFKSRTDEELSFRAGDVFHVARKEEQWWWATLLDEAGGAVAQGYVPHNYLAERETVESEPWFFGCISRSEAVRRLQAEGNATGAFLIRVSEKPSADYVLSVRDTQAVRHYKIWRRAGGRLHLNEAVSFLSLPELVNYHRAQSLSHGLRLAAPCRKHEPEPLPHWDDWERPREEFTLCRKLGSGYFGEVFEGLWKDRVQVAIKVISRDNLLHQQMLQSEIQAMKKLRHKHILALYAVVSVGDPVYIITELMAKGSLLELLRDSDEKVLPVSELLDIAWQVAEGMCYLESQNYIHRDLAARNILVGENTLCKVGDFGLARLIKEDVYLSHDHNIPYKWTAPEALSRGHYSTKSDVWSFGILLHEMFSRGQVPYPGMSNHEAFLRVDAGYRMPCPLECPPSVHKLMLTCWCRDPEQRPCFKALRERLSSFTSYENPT
Experimental: as §3

CSK = CSK (Homo sapiens, UniProt P41240); assay: Kinase profiling (ProQinase 33PanQinase Activity Assay), CSK; type: biochemical; settings: read-out: residual activity, CSK
CSK, sequence (P41240 whole entry): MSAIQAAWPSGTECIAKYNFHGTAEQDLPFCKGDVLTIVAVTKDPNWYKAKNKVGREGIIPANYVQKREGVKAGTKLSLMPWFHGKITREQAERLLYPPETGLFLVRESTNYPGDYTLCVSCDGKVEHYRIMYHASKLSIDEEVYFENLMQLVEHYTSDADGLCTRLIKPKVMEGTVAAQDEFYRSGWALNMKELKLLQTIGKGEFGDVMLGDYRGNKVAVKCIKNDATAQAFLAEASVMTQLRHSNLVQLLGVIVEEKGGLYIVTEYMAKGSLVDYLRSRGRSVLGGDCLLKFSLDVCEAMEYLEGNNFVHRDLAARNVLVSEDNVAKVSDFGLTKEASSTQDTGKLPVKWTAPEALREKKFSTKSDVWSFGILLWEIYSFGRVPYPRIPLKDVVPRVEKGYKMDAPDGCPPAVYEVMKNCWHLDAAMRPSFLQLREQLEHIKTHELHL
Experimental: as §3

EPHB1 = target: T1, EPHB1 (Homo sapiens, UniProt P54762); assay: Kinase profiling (ProQinase 33PanQinase Activity Assay), EPHB1; type: biochemical; settings: read-out: residual activity, EPHB1
T1 sequence (P54762 18-984): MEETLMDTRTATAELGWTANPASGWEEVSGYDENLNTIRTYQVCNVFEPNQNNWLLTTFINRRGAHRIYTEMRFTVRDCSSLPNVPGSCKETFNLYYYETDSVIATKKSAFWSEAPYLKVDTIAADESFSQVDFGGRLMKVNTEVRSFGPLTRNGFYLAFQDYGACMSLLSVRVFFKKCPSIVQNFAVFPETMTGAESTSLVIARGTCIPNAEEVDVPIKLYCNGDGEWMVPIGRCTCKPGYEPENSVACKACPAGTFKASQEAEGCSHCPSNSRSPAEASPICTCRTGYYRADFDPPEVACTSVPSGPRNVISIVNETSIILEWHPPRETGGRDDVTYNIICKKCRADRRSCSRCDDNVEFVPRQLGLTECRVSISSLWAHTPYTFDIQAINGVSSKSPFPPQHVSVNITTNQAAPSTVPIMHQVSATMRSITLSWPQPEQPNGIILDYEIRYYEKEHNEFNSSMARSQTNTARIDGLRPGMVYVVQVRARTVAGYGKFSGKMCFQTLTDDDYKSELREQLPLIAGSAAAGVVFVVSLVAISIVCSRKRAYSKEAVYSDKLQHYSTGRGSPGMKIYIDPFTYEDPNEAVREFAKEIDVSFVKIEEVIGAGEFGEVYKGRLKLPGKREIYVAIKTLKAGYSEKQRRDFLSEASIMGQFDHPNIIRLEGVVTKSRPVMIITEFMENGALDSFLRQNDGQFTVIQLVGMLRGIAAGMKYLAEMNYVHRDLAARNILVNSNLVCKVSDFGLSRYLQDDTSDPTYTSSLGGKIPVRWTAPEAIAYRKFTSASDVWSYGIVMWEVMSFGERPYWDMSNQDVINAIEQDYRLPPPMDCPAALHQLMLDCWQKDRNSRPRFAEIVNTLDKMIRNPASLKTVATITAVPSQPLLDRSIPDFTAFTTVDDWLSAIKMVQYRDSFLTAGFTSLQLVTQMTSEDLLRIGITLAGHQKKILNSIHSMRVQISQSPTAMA
Experimental: as §3

RON = RON (Homo sapiens, UniProt Q04912); assay: Kinase profiling (ProQinase 33PanQinase Activity Assay), RON; type: biochemical; settings: read-out: residual activity, RON
RON, sequence (Q04912 25-1400): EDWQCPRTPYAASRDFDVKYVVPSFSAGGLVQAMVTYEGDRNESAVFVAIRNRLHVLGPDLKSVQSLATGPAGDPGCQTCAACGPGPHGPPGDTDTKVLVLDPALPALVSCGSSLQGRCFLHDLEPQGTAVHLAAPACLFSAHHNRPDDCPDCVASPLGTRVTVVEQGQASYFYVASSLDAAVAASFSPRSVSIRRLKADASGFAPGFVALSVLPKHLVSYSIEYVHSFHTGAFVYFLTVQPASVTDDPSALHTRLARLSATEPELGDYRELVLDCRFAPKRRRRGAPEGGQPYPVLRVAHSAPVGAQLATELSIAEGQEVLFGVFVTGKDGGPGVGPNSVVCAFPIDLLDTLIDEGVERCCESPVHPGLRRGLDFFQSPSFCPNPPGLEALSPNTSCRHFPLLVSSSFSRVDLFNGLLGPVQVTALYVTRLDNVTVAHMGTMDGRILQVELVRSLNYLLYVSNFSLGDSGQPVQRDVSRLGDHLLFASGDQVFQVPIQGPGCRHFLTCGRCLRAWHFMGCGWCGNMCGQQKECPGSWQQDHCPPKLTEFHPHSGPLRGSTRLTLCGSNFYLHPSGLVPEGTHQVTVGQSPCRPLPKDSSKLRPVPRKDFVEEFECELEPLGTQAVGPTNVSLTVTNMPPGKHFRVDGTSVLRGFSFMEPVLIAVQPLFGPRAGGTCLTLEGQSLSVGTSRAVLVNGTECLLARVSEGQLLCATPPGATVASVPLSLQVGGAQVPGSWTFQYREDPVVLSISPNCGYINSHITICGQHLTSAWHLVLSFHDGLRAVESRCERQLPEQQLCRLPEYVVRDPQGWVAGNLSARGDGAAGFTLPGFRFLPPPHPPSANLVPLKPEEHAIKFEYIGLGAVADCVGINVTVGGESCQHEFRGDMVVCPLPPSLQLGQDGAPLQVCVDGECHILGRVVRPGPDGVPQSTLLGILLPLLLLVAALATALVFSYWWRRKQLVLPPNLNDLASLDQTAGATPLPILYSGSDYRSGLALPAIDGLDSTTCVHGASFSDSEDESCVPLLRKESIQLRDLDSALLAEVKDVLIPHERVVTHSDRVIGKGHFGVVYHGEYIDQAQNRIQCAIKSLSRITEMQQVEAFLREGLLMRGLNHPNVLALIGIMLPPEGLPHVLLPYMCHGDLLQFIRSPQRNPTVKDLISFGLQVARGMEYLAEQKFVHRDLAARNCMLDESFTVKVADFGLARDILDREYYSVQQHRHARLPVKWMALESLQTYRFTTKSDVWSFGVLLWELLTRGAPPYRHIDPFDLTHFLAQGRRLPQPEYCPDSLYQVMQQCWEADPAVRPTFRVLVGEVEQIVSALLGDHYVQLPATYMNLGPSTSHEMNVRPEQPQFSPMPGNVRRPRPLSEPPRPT
Experimental: as §3

[2] = system: 387 protein kinases and 13 lipid kinases; assay: Kinase profiling, selectivity score over the whole panel; type: biochemical
Experimental: as §3

U87 [3] = assay: Annexin-FITC/7-AAD apoptosis assay, U87 cells; type: cell-based; settings: 48 hours treatment
Experimental: FIGS. 4A-4D. […] U87 (4A-4B) and U87vIII (4C-4D) cells were treated with SC-38 for 48 hours and stained with Annexin-FITC/7-AAD. Apoptotic cells were visualized using the MUSE cell analyzer (Millipore).
FIGS. 6A-6D. […] U87 (A B) (6A-6B) and U87vIII (6C-6D) cells were treated with compound 1-08 for 48 hours and stained with Annexin-FITC/7-AAD. Apoptotic cells were visualized using the MUSE cell analyzer (Millipore). Results are means±SEM from 3 independent experiments. One-way ANOVA followed by Dunnet post-test was used to calculate statistical significance (***P<0.001).
(§4) U87 (FIGS. 4, A-B) and U87vIII (FIG. 4, C-D) cells were treated with SC-38 for 48 hours and stained with Annexin-FITC/7-AAD. Apoptotic cells were visualized using the MUSE cell analyzer (Millipore). Results are means±SEM from 3 independent experiments. One-way ANOVA followed by Dunnet post-test was used to calculate statistical significance (**P<0.01, ***P<0.001)
as §4, with “6,” for “4,”, “compound 1-08” for “SC-38”, “three” for “3”, “(***P<0.001).” for “(**P<0.01, ***P<0.001)”

O=C(CCCc1ccc(-c2cnc3ccccc3c2)cc1)Nc1ccc(O)cc1 [Compound 1-08, N-(4-hydroxyphenyl)-4-(4-(quinolin-3-yl)phenyl)butanamide]
EC50 (U87 [1]): 650 ± 300 nM
EC50 (U251): 980 ± 200 nM
remaining activity at 10 µM (ALK; 10 μM compound): 76%
remaining activity at 50 µM (ALK; 50 μM compound): 21%
remaining activity at 10 µM (BRK; 10 μM compound): 74%
remaining activity at 50 µM (BRK; 50 μM compound): 29%
remaining activity at 10 µM (CSK; 10 μM compound): 89%
remaining activity at 50 µM (CSK; 50 μM compound): 21%
remaining activity at 10 µM (EPHB1; 10 μM compound): 57%
remaining activity at 50 µM (EPHB1; 50 μM compound): 20%
remaining activity at 10 µM (RON; 10 μM compound): 84%
remaining activity at 50 µM (RON; 50 μM compound): 18%
Selectivity score (portion of kinases inhibited more than 50% in relation to all tested kinases) ([2]; 10 μM compound): 0.003
Selectivity score (portion of kinases inhibited more than 50% in relation to all tested kinases) ([2]; 50 μM compound): 0.203
apoptosis, U87 (U87 [3]): induced apoptosis
